Values quoted from earlier work as cited in patent US5628328A, “Method for measuring muscle mass” (priority 1995, dated 1997).

Settings: sheep, cited from earlier work

Cn1cnc(C[C@H](N)C(=O)O)c1 [3-methylhistidine]
3MH Production (n=36, from model): 10.1 µmol/kg/day | M1, compartment mass (n=36): 4693 nmol/kg | M2, compartment mass (n=36): 11634 nmol/kg | M3, compartment mass (n=36): 16494 nmol/kg | R01 mass transfer rate (n=36): 1.4 nmol/kg/min | R03 mass transfer rate (n=36): 5.7 nmol/kg/min | R12 mass transfer rate (n=36): 930 nmol/kg/min | R21 mass transfer rate (n=36): 928 nmol/kg/min | R23 mass transfer rate (n=36): 80 nmol/kg/min | R32 mass transfer rate (n=36): 84 nmol/kg/min | L0,1 fractional transfer rate (number 40): .0003 min⁻¹ | L0,3 fractional transfer rate (number 40): .0004 min⁻¹ | L1,2 fractional transfer rate (number 40): .08 min⁻¹ | L2,1 fractional transfer rate (number 40): .21 min⁻¹ | L2,3 fractional transfer rate (number 40): .005 min⁻¹ | L3,2 fractional transfer rate (number 40): .007 min⁻¹ | Urinary 3MH loss (number 40): 17 % of total | Urinary excretion of total daily 3-methylhistidine produced: 15%
